Experimental data: patent US6551774B1, “Diagnostic methods for conditions associated with elevated cellular levels of telomerase activity” (Board of Regents, The University of Texas System, priority 1992, dated 2003)

Assays:
Tetrahymena cells [1] = experiment: Telomere length in vegetatively grown Tetrahymena by Southern blot; assay type: cell-based, Tetrahymena thermophila
Tetrahymena cells [2] = experiment: Single-cell transfer cultures of Tetrahymena with AZT or Ara-G; assay type: cell-based, Tetrahymena thermophila
Experimental: For analysis of vegetative growth and macronuclear DNA from single-cell cultures containing the nucleoside analogs AZT or Ara-G, SB210 (VI) cells were grown from stationary stock cultures overnight at 30° C. with shaking (100 rpm) in 50 ml 2% PPYS or Isobroth. Cells were counted and added to the appropriate medium plus analog (Ara-G to 1 mM or DMSO to 1% as control in 2% PPYS; AZT to 10 μm or 1 mM, or no addition as control in Isobroth) and plated in 96-well plates (Falcon), 100 μl per well at a density of 1 cell per well. 5 plates were prepared for each analog or control. Wells were scored for cell growth and plates were replica plated every 1-2 days (Ara-G and DMSO plates) or every 2-4 days (AZT and Isobroth control plates) to maintain approximate inoculation densities of 1-10 cells per well for each passage. Occasionally individual wells were passaged by hand (1 μl inoculated per well using a pipettor) into several blank wells, to expand the number of live wells per plate as single-cell cultures were lost over time due to low probability of being transferred at each passage. After passaging, cells were pooled, pelleted and stored at −80° C. until processed for DNA analysis.
To test whether we had missed such a subpopulation of cells, we carried out the same experiments on vegetatively dividing Tetrahymena cells in the presence and absence of drug, but in these experiments the subculturing was carried out by plating cells at an average of 1 to 10 cells per well in microtiter plate wells in the presence of 10 μM and 1 mM AZT, and 10 μM and 1 mM Ara-G. For each drug, cells were plated out in this manner for 30 consecutive days (90 to 150 cell generations) and 16 consecutive days (50 to 80 cell generations) respectively for the 10 μM and 1 mM drug concentrations. DNA was isolated at intervals from combined samplings of the wells for analysis of telomere length.

[3] = test system: lymphoma cell line JY 616; experiment: Telomere length of JY lymphoma cells by Southern blot; assay type: cell-based, human; settings: AZT treated cells, week 3
Experimental: The first lane is DNA from the cells at the start of the experiment, the second is the RPMI control, and the third is cells treated with AZT for the times indicated.
Cells were treated over a 10 week period with either 10 μM ddG in 0.01% DMSO or medium with 0.01% DMSO only.
The effect of the agents on telomerase activity in intact cells was then studied utilizing the lymphoma cell line JY 616 which were maintained in RPMI 1640 with […] Hepes, 10% FCS, and penicillin/streptomycin (Gibco). The cells were cultured in 6-well plates (Falcon) with 5.0 ML of medium per well in duplicate. Cells were passaged every 7-10 days which corresponded to 5-7 mean population doublings (MPD), and seeded at 3×10^4 cells per well into fresh medium containing analog or control. Cell viability was monitored prior to harvest utilizing trypan blue stain (Gibco) during counting with a hemocytometer. The average ratio of stained: unstained cells (dead:alive) was […]. The intactness of the DNA was measured on a parallel gel by observing its mobility in a gel prior to digestion by a restriction enzyme.

[4] = 1 mM in Isobroth, single cell transfers

SMILES: Cc1cn([C@H]2C[C@H](N=[N+]=[N-])[C@@H](CO)O2)c(=O)[nH]c1=O [AZT]
- fraction of the maximal telomere shortening effect (Tetrahymena cells [1]; 10 μM, the lowest concentration tested): at least 50%
- shortening of telomeres compared with control cultures (Tetrahymena cells [1]; 1 and 5 mM in 2% PPYS medium): ≤ 170 base pairs
- plating efficiency compared with control medium (Tetrahymena cells [2]; 10 μM AZT, 10 μM or 1 mM Ara-G, 1 to 10 cells per well): no changes in the plating efficiency
- mean length and size distribution of telomeric DNA of pooled fast cells (Tetrahymena cells [2]; 1 mM in Isobroth): indistinguishable from those of control cells grown without AZT
- telomeric DNA of pooled slow cells (Tetrahymena cells [2]; 1 mM in Isobroth): slight decrease in mean telomere length and heterogeneity
- growth rate of the fast growth class (Tetrahymena cells [2]; [4]): 2 to 4 cell doubling per day
- growth rate of the slow growth class (Tetrahymena cells [2]; [4]): 0 to 1 cell doubling per day
- mean telomere length compared to the control medium [3]: marked decrease in mean telomere length
